Values after ≈ are worked out from the molar mass of the structure shown. “Also recorded” adds a separate entry of the source. Where a SMILES comes first, the peptide text is derived from it. Where no end group is shown, it is not given here.
Columns and labels:
[1] = tested on: A(H1N1) virus; assay type: cell-based, A/Hong Kong/415742M/2009(H1N1)
[2] = tested on: A(H1N1) virus
[3] = target: Spike of SARS-CoV-2 / ACE2-human (Severe acute respiratory syndrome coronavirus 2, UniProt P0DTC2); assay type: cell-based, SARS-CoV-2 / human
[4] = tested on: A(H1N1) virus; parameters: species or system BALB/c mice; details: in vivo
[5] = tested on: SARS-CoV; parameters: species or system BALB/c mice; details: in vivo
[6] = tested on: coronavirus or influenza virus; details: oral inoculation or intraperitoneal injection (refs 29, 30, 39, 41); cited from earlier work
[7] = tested on: SARS-CoV-2; assay type: cell-based
[8] = tested on: SARS-CoV-2; assay type: cell-based, human
[9] = tested on: SARS-CoV-2; details: cited from earlier work
[10] = tested on: SARS-CoV-2; details: in vivo
[11] = target: S protein of SARS-CoV-2 (Severe acute respiratory syndrome coronavirus 2, UniProt P0DTC2); assay type: binding
[12] = tested on: FluB
[13] = tested on: A(H3N2)
[14] = tested on: MDCK cells; assay: Cytotoxicity assay (MTT)
[15] = tested on: turkey red blood cells; details: normalized to Triton X-100
[16] = tested on: SARS-CoV-2
[17] = tested on: A(H1N1) virus; assay type: cell-based; details: virus pretreated 45 min, attached to MDCK cells 1 h

## CC[C@H](C)[C@H](NC(=O)[C@H](C)NC(=O)CNC(=O)[C@H](CC(N)=O)NC(=O)[C@H](CO)NC(=O)[C@H](Cc1ccccc1)NC(=O)[C@H](CCCNC(=N)N)NC(=O)[C@H](Cc1c[nH]cn1)NC(=O)[C@H](CS)NC(=O)[C@H](CCC(N)=O)NC(=O)[C@H](CO)NC(=O)[C@H](CC(=O)O)NC(=O)[C@H](Cc1c[nH]c2ccccc12)NC(=O)[C@H](CCCNC(=N)N)NC(=O)CNC(=O)[C@H](CC(N)=O)NC(=O)[C@@H](NC(=O)[C@@H](N)Cc1ccccc1)[C@@H](C)CC)C(=O)N[C@@H](C)C(=O)N[C@@H](CS)C(=O)N[C@@H](C)C(=O)O [U4] (H-FINGRWDSQCHRFSNGAIACA-OH; N-terminus and C-terminus assumed)
[1]
  antiviral activity against A(H1N1) virus compared with Urumin: more potent antiviral activity than that of Urumin
[2]
  IC50 against A(H1N1) virus: 6.6 µg/mL (≈ 2.8 µM)

## CO/C1=C\C(C)=C\[C@@H](C)[C@@H](O)[C@@H](C)C/C(C)=C/C=C/[C@H](OC)[C@@H]([C@@H](C)[C@@H](O)[C@H](C)[C@@]2(O)C[C@@H](O)[C@H](C)[C@@H](C(C)C)O2)OC1=O [bafilomycin A1]
[3]
  spike-ACE2 mediated cell fusion: fusion inhibition

## CCN(CC)CCCC(C)Nc1ccnc2cc(Cl)ccc12 (stereo not drawn) [chloroquine]
[4]
  A(H1N1) virus replication in mouse lungs (in words): inhibited A(H1N1) virus replication
  A(H1N1) virus replication in mouse lungs, atomization inhalation: could inhibit; also recorded: inhibited
[4]; mouse
  1-day prophylactic activity against A(H1N1) virus replication: could not provide 1-day prophylactic activity
  inhibition of A(H1N1) virus replication in mice: 3.5 fold
  inhibition of A(H1N1) virus replication, one dose before viral inoculation: 3-5 fold
[5]
  SARS-CoV replication in mouse lungs, atomization inhalation: could inhibit; also recorded: inhibited
[5]; mouse
  1-day prophylactic activity against SARS-CoV replication: could not provide 1-day prophylactic activity
  inhibition of SARS-CoV replication, one dose before viral inoculation: 3-5 fold
[6]
  coronavirus or influenza virus replication in vivo after systemic administration: could not inhibit coronavirus or influenza virus replication in vivo
[7]
  antiviral activity when cells treated before or after infection: significantly less antiviral activity
  viral replication when treated during viral infection: effectively inhibit viral replication; also recorded: more effectively inhibited viral replication
[8]
  SARS-CoV-2 replication in ex vivo human lung tissues: significantly inhibited SARS-CoV-2 replication
[9]
  SARS-CoV-2 replication in Calu-3 cells (reference 24): cannot inhibit SARS-CoV-2 replication
[10]
  SARS-CoV-2 replication in hamster lungs (in words): inhibited SARS-CoV-2 replication
  inhibition of SARS-CoV-2 replication in hamster lungs: 2 fold

## IPLRGAFINGRWDSQCHRFS [U5]
[1]
  antiviral activity against A(H1N1) virus compared with Urumin: more potent antiviral activity than that of Urumin
[11]
  binding to S protein of SARS-CoV-2: bound to S protein
  effect of U5 on P16 binding to S protein: reduced P16 binding to S protein; also recorded: blocked P16 binding to S protein
[2]
  IC50 against A(H1N1) virus: 12.9 µg/mL
[3]
  spike-ACE2 mediated cell fusion: did not inhibit spike-ACE2 mediated fusion

## RGAHIKGRWKSRCHRF [P16, RGAHIKGRWKSRCHRF]
[12]
  IC50 against FluB: 7.1 µg/mL
[13]
  IC50 against A(H3N2): 1.6 µg/mL
[14]; MDCK cells treated by 1 mg ml^−1 of P16
  cytotoxicity on MDCK cells: no significant cytotoxicity
[14]; MDCK cells, MTT, 24 h
  TC50: > 1000 µg/mL
[15]
  hemolysis of turkey red blood cells: no significant hemolysis
[2]
  IC50 against A(H1N1) virus: 3.9 µg/mL
[16]
  IC50 for SARS-CoV-2 B.1.1.63: 3.0 µg/mL
  IC50 for SARS-CoV-2 B.1.617.2: 3.9 µg/mL
  IC50 for SARS-CoV-2 HKU001a: 2.9 µg/mL

## Triton X-100
[17]
  viral attachment to cells (RNA copies of attached virus): significantly reduced
